This note sets out measurements from US20210059995A1, “Composition for Protecting Cornea” (Kyoto University, priority 2017, published 2021).

SMILES strings stand for the structures.

The subject of assay [1] is rabbit corneal epithelial cells. In words: Rabbit corneas preserved in Optisol-GS: apoptosis of corneal epithelial cells by TUNEL assay. The settings on record: Optisol-GS at 4° C., 1-4 weeks; KUS121 50 μM, KUS187 20 μM; FIG. 8-10. The procedure:
(§1) Japanese white rabbits were euthanized, whole eyeballs were excised, and sclerocorneal preparations were prepared by using a razor blade. Each four sclerocorneal preparations were preserved in the following preservation solutions at 4° C. for 4 weeks; (1) Optisol-GS (control), (2) Optisol-GS+KUS121 (50 μM), or (3) Optisol-GS+KUS187 (20 μM). The tissues were sequentially embedded and sectioned.
The tissue sections were fluorescently stained by TUNEL method and observed by confocal microscopy. Images of the epithelial layers around the centers of the corneas were obtained in three different fields (FIG. 8). […] The total corneal epithelial cells stained with PI and the TUNEL-positive cells were counted and the percentages of the TUNEL-positive cells were calculated. The percentages were compared over time among the preservation conditions (FIG. 10). The TUNEL-positive apoptotic cells were increased in the corneal epithelial cells of the control group after week 1. The apoptosis was suppressed in the KUS121 and KUS187 groups.

The test system of assay [2] is rabbit corneas. As to the kind of experiment: Rabbit corneas preserved in Optisol-GS: HE-staining microscopic findings and central corneal thickness. The settings on record: Optisol-GS at 4° C., 1-4 weeks, KUS121 50 μM, KUS187 20 μM; for swelling of corneal endothelial cells during preservation: control swelled at week 1; for swelling of corneal endothelial cells during preservation / swelling of corneal stroma during preservation: FIG. 6; for swelling of corneal stroma during preservation: control swelled at week 3; for corneal epitheliums and cornea thicknesses versus control group: especially at week 3 or later, FIG. 6, 7. The procedure: as §1
The tissue sections were stained with HE-staining and observed by microscopy. The images were compared over time among the preservation conditions (FIG. 6). Microscopic images of the sections including the central parts of the corneas were obtained and the central corneal thicknesses were measured and compared over time among the preservation conditions (FIG. 7). In the corneas preserved in Optisol-GS (control), the corneal endothelial cells swelled at week 1 and the corneal stroma swelled at week 3.

Assay [3] has as its system immortalized human corneal endothelial cells (iHCECs). As to the kind of experiment: Western blot analysis of cleaved caspase 3 and PARP in thapsigargin-treated immortalized human corneal endothelial cells. The settings on record: 10 μM thapsigargin for 8 hours, compound 10, 25, 50 or 100 μM, FIG. 5. The format is cell-based. The procedure:
The medium was changed to the medium containing 10 μM thapsigargin (WAKO, 209-17281) and KUS121 (10 μM, 25 μM, 50 μM, or 100 μM), and the cells were cultured for 8 hours. Medium: DMEM+10% FBS+1% P/S
After the observation of the morphology, western blot analysis was performed by the following procedures.
The media were collected from each well on ice, the cells were washed twice with 1×PBS(−), and the washings were collected. In order to collect suspended cells and dead cells, the collected media and washings were centrifuged at 4° C., 800 g, for 12 minutes, the supernatants were discarded and the pellets were obtained. Protein extraction buffers (RIPA; 50 mM Tris-HCl (pH 7.4), 150 mM NaCl, 1 mM EDTA, 0.1% SDS, 0.5% DOC, 1% NP-40) were added to the washed cells on ice. The cells were suspended together with the pellets of the suspended cells and dead cells. […]
The protein extracts (7 μg each) were separated by SDS-PAGE and transferred to a nitrocellulose membrane. […] The signals were detected by Chemi Lumi ONE Ultra (NACALAI TESQUE, INC., 11644-40). The intensities of the detected bands were analyzed by luminescent image analyzer LAS-4000 mini (Fujifilm Corporation) and ImageQuant™ software (GE Healthcare).
(In general: A western blot detects proteins with antibodies after separation by electrophoresis.)

Assay [4] concerns rabbit corneas. In words: Rabbit corneas preserved in Optisol-GS: transmission electron microscopy. The settings on record: corneas preserved for one week in Optisol-GS at 4° C., compound 50 μM, FIG. 13. The procedure: as §1
Corneas preserved for one week were immersed in 0.1 M phosphate buffer containing 2% glutaraldehyde at 4° C. for prefixation, in 0.1 M phosphate buffer at 4° C. overnight for washing, and in 2% aqueous osmium solution at 4° C. for 3 hours for postfixation. For dehydration the corneas were successively immersed in ethanol solutions of high concentrations (50, 70, 90, 100, 100, and 100%) at 4° C. (50%) or a room temperature for 15 minutes. For substitution the corneas were immersed in propylene oxide at a room temperature for 45 minutes and then in a mixture of propylene oxide and epoxy resin at a room temperature for 1.5 hours. For embedding the samples and epoxy resin were put into capsules and cured at 60° C. for 48 hours. Then 80-90 nm sections were prepared by using an ultramicrotome and put on 200 meshes. The sections were stained with 2% uranyl acetate and lead and reinforced by carbon deposition (reinforcement of sections against electron beams). […]

The test system of assay [5] is rabbit corneal endothelial cells. In words: Cell morphology (phase-contrast) of cultured rabbit corneal endothelial cells under antimycin, oligomycin or glucose deprivation. The format is cell-based. The settings on record: compound 50 μM. How it is done: (§2) Whole eyeballs of Japanese white rabbits (Funakoshi Corporation) were cut along corneal limbus with a razor blade and the corneas were isolated. The corneal endothelial cells were mechanically scraped off and collected with a crescent knife. Primary cultures were prepared in a DMEM with 10% fetal bovine serum and 2 ng/ml bFGF. The sub-confluent cells were treated with trypsin and collected, then plated on 12-well plates at the equal density of 4×10^4 cells/well and cultured in the same medium for 24 hours. The cells were subsequently cultured in the following eight different conditions: (1) control (the medium+DMSO), (2) the medium+KUS121 (50 μM), (3) the medium+antimycin (20 μM), (4) the medium+antimycin (20 μM)+KUS121 (50 μM), (5) the medium+oligomycin (10 μM), (6) the medium+oligomycin (10 μM)+KUS121 (50 μM), (7) DMEM with 2 ng/ml bFGF (non-glucose); and (8) DMEM with 2 ng/ml bFGF (non-glucose)+KUS121 (50 μM).
After the addition of the agents, sequential phase-contrast images of the cultured corneal endothelial cells were obtained.

The test system of assay [6] is immortalized human corneal endothelial cells (iHCECs). In words: Cell morphology and apoptosis of thapsigargin-treated immortalized human corneal endothelial cells by phase-contrast microscopy. The format is cell-based. The settings on record: 10 μM thapsigargin for 8 hours, compound 10, 25, 50 or 100 μM with 24 hours pretreatment, FIG. 4. How it is done:
Corneas for research were imported from SightLife™ (Seattle, Wash.). The cornea endothelial cells were stripped from the corneas with Descemet's membranes and immersed in a corneal preservation solution (Optisol-GS, Bausch & Lomb Incorporated). The cornea endothelial cells were treated with collagenase and collected. The cells were cultured in a conditioned medium which was prepared by culturing 3T3 cells in OptiMEM (Gibco, 3195070) with 10% fetal bovine serum (FBS) for 24 hours and then adding 10 μM SB203580 (Funakoshi, 13067) and 1 μM SB431542 (Wako, 192-16541) to the culture medium.
The corneal endothelial cells were immortalized by the following procedures. SV40 large T antigen and hTERT genes were amplified by PCR, and introduced into a lentiviral vector (pLenti6.3-V5-TOPO; Life Technologies Inc.). The lentiviral vector and three helper plasmids (pLP1, pLP2, pLP/VSVG; Life Technologies Inc.) were transfected into 293T cells (RCB2202; Riken Bioresource Center, Ibaraki, Japan) with a transfection reagent (Fugene HD; Promega Corp., Madison, Wis.). The culture supernatant containing the virus was collected 48 hours after the transfection and added to the culture medium of the cornea endothelial cells with 5 μg/ml of Polybrene, thereby the SV40 large T antigen and hTERT genes were introduced into the cells. […]

Assay [7] concerns rabbit corneal endothelial cells. As to the kind of experiment: Intracellular ATP concentration (luciferase assay) in cultured rabbit corneal endothelial cells. It is filed as cell-based. The settings on record: compound 50 μM, FIG. 3. The procedure:
as §2
The corneal endothelial cells cultured in the presence of the agents (P=1) were washed with PBS(−), treated with trypsin, suspended in the medium (DMEM with 10% fetal bovine serum and 2 ng/ml bFGF), and counted. Then 2.5×10^4 cells were centrifuged, suspended in PBS(−), and dispensed into 5 wells of a 96-well plate at the density of 5×10^3 cells/well. The cells were subjected to a luciferase assay (“Cell” ATP Assay reagent, TOYO B-Net CO., LTD.). The fluorescence intensities were measured as relative intracellular ATP concentrations using a luminometer.

Assay [8] shares this test system. In words: Rabbit corneas preserved in Optisol-GS: corneal endothelia by immunofluorescence staining of Na+/K+ ATPase. The settings on record: Optisol-GS at 4° C., from week 1; KUS121 50 μM, KUS187 20 μM; FIG. 11. The procedure:
as §1
The tissue sections were fluorescently stained with anti-Na+/K+ ATPase antibody, the corneal endothelia around the centers of the corneas were observed by indirect immunofluorescence microscopy, and the images were compared over time among the preservation conditions (FIG. 11).

As to `Cc1cc(F)ccc1-c1ccc(N=Nc2cc(S(=O)(=O)[O-])c3ccccc3c2N)cn1.[Na+]` [KUS121, 4-amino-3-[6-(4-fluoro-2-methylphenyl)pyridine-3-ylazo]naphthalene-1-sulfonic acid sodium salt], the “TUNEL-positive cells among corneal epithelial cells versus control group” value in assay [1] is given as “fewer through the test period than in the control group”. Further, in the assay with rabbit corneas [2], the “swelling of corneal endothelial cells during preservation” value was “the cell swelling was suppressed until week 2”; the “swelling of corneal stroma during preservation” value is reported as “the corneal stroma swelling was kept mild until week 4”; the “corneal epitheliums and cornea thicknesses versus control group” value was “maintained better”. In assay [3], the “band of cleaved caspase 3 (about 17 kDa) induced by thapsigargin” value is “hardly detected”. For the same compound, in the assay with rabbit corneas [4], the “swelling of the corneal stroma and the corneal endothelial cells (electron microscopy)” value is given as “observed in the control, but not in the corneas preserved in a solution containing KUS121”; the “vacuolization of the corneal epithelial cells and loss of microvilli” value is listed as “observed in the control, but not in the corneas preserved in a solution containing KUS121”. In addition, the “death of corneal endothelial cells caused by antimycin” value in assay [5] (antimycin 20 μM, 28 hours after addition of the agents, FIG. 1) is “the cell death was suppressed”. In addition, the “death of corneal endothelial cells caused by glucose deprivation” value in assay [5] (cultured without glucose, 96 hours, FIG. 2) was “the cell death was suppressed”. Further, the “death of corneal endothelial cells caused by oligomycin” value in assay [5] (oligomycin 10 μM, 28 hours after addition of the agents, FIG. 1) is given as “the cell death was suppressed”. Further, the “deformation of the cells (cell damage) caused by thapsigargin” value in assay [6] is recorded as “the deformation was suppressed”. Further, the “decrease of intracellular ATP concentration in the absence of glucose” value in assay [7] (absence of glucose for 96 hours) is “the decrease was suppressed”. Besides, the “decrease of intracellular ATP concentration caused by antimycin” value in assay [7] (antimycin 20 μM for 27 hours) was “the decrease was suppressed”. Moreover, the “decrease of intracellular ATP concentration caused by oligomycin” value in assay [7] (oligomycin 10 μM for 27 hours) is recorded as “the decrease was suppressed”. Besides, the “corneal endothelial cells (Na+/K+ ATPase staining) versus control group” value in assay [8] is recorded as “maintained better”.

For the compound `CCCCOc1c(C=O)cc(C)cc1-c1ccc(N=Nc2cc(S(=O)(=O)[O-])c3ccccc3c2N)cn1.[Na+]` [KUS187, 4-amino-3-[6-(3-formyl-2-butoxy-5-methylphenyl)pyridine-3-ylazo]naphthalene-1-sulfonic acid sodium salt], the “TUNEL-positive cells among corneal epithelial cells versus control group” value in assay [1] was “fewer through the test period than in the control group”. For the same compound, in the assay on rabbit corneas [2], the “swelling of corneal endothelial cells during preservation” value was “the cell swelling was suppressed until week 2”; the “swelling of corneal stroma during preservation” value is listed as “the corneal stroma swelling was kept mild until week 4”; the “corneal epitheliums and cornea thicknesses versus control group” value is on record as “maintained better”. The “corneal endothelial cells (Na+/K+ ATPase staining) versus control group” value in assay [8] is “maintained better”.
